# Data taken from patent US5344930A, “Fluorine and phosphorous-containing amphiphilic molecules with surfactant properties” (Alliance Pharmaceutical Corp., priority 1993, dated 1994).
# Where two headings read alike, the source gives them in different places.
# Columns and labels:
# [1] = Fluorocarbon (F-decalin) emulsions: average particle size and stability; assay type: physicochemical; conditions: for increase in average particle size: perfluorodecalin (50% w/v) emulsions, 2 or 3% w/v sole surfactant
# Protocol: ^a Emulsions prepared by microfluidization.
# Additional stable perfluorodecalin (50% w/v) emulsions based on the perfluoroalkylated phosphatidylcholines 11 or 12 (2 or 3% w/v) as the sole surfactant have been prepared by sonication.
# ^a Emulsions prepared by sonication
# ^b The emulsions are stored at 25° C.
# ^c The emulsions are stored at 50° C.
# ^a All the emulsions are prepared by microfluidization and stored at
# The new perfluoroalkylated surfactants were solubilized or dispersed into water. Then the fluorocarbon was added under agitation. Any emulsification method like sonication can be used but mechanical procedures such as microfluidization or high pressure homogenization are preferred. The emulsion obtained can be used as an O2 carrier. The significant stabilization effect which can be obtained by incorporating the new F-alkyl surfactants is illustrated for various emulsion formulations (see Tables above).
# [2] = Surface tension of aqueous solutions at 20° C.; assay type: physicochemical; conditions: (+0.3)
# Protocol: (§1) The strong surface activity of the compounds encompassed by this invention is illustrated in particular by the strong lowering of the surface tension (γs) they cause when added to water, as shown by the examples of surface tensions (measured at 20° C. and expressed in milliNewton.meter^-1) and calculated spreading coefficients collected in the Table below: […]
# [3] = Interfacial tension and spreading coefficient between water and perfluorodecalin; assay type: physicochemical; conditions: for γi (interfacial tension between water and perfluorodecalin): (+0.3), 56 mNm^-1 in the absence of surfactant; for Spreading Coef.: -56 mNm^-1 in the absence of surfactant
# Protocol: as §1
# [4] = tested on: mice; test: Injection into the tail vein of mice (deaths, growth); assay type: in vivo; conditions: 500 μl in NaCl 9%, 10 mice of 20-25g, observed for 35 days
# [5] = Growth and viability of lymphoblastoid cell cultures of the Namalva strain; assay type: cell-based; conditions: human, namalva lymphoblastoid cells, control = 100%; for activity: read-out: Cell Culture Growth %; for viability: read-out: Cell Culture Viability %
# [6] = Liposome preparation: average size and stability; assay type: physicochemical
# Protocol: 1) Lipid 12 dissolved in chloroform was placed in a round bottom flask and the solvent evaporated by rotation under argon to produce a uniform film of dry lipid. Residual traces of chloroform were removed under vacuum (10^-3 mm Hg, 3 h). Dried lipid is suspended in HEPES buffer (10^-2 M,pH 7), vortexed for 5 ran., then probe sonicated (dial 7 on a Branson B30 sonifier, Power 4, Pulse 50, 3 mn.) 15° C. above phase transition temperature, to produce a clear bluish dispersion. Final concentration of 12 is 3% (w/v). Average size measurements were realised by light scattering on a Coulter Model N4SD, sub-Micron Particle Analyser: 0,12 μm.
# 2) Same dispersion procedure applied to powder lipid 12 produced a clear dispersion with an average particle size 0,12 μm.
# Liposomes were observed by electronic microscopy after freeze-etching as unilamellar and multilamellar vesicles.
# [7] = Table I, 3% compound (Ref.: 3% EYP), 50% w/v F-decalin, 1 month at 50° C.
# [8] = Table I, 3% compound (Ref.: 3% EYP), 50% w/v F-decalin, microfluidization
# [9] = Table III, 1% compound + 2% EYP (Ref.: 3% EYP), 20% w/v F-decalin, 1 month at 25° C.
# [10] = Table III, 1% compound + 2% EYP (Ref.: 3% EYP), 20% w/v F-decalin, sonication
# [11] = Table III, 1% compound + 2% EYP (Ref.: 3% EYP), 20% w/v F-decalin, sonication, stored at 25° C.
# [12] = Table IV, 0.66% compound + 1.33% EYP, 100% w/v F-decalin, stored at 50° C.
SMILES,"Relative Increase % (particle size) [1, 9] [%]","Average Particle Size After Preparation [1, 10] [μm]","Average Particle Size After 1 month [1, 11] [μm]",γs (surface tension) ([2]; 1 g/l in water) [mNm^-1],γi (interfacial tension between water and perfluorodecalin) ([3]; 1 g/l in water) [mNm^-1],Spreading Coef. ([3]; 1 g/l in water) [mNm^-1],concentration of which injection caused no deaths and did not perturb the normal growth [4] [µg/mL],activity ([5]; 1 g/l in 9% of NaCl) [%],viability ([5]; 1 g/l in 9% of NaCl) [%],other results
"C[N+](C)(C)CCOP(=O)([O-])OCCC(F)(F)C(F)(F)C(F)(F)C(F)(F)C(F)(F)C(F)(F)C(F)(F)C(F)(F)F [Compound 5, [2-(F-octyl)ethyl] [2'-N,N,N trimethylamino ethyl] phosphate]",100,0.15,0.29,23.0,4.5,-4.6,1000,,,"emulsion stability (in words) ([1]; 50% w/v F-decalin emulsions, 1% surfactant where stated): remain stable at 50 °C for at least one month; Average Particle Size After Preparation ([1]; Table I, 1% compound (Ref.: 1% EYP), 50% w/v F-decalin, microfluidization): 0.48 μm; Relative Increase % (particle size) ([1]; Table I, 1% compound, 50% w/v F-decalin, 1 month at 50° C.): 14%; Average Particle Size After 1 month at 50° C. ([1]; Table I, 1% compound, 50% w/v F-decalin, microfluidization): 0.55 μm; Relative Increase % (particle size) [1, 7]: 50%; Average Particle Size After 1 month at 50° C. [1, 8]: 0.30 μm; Average Particle Size After Preparation [1, 8]: 0.20 μm; Average Particle Size After Preparation ([1]; Table IV, 0.66% compound + 1.33% EYP (Ref.: 2% EYP), 100% w/v F-decalin, microfluidization): 0.6 μm; Average Particle size After 3 months ([1]; Table IV, 0.66% compound + 1.33% EYP (Ref.: 2% EYP), 100% w/v F-decalin, stored at 50° C.): 1.1 μm; Average Particle size After 8 months [1, 12]: 1.35 μm; Relative Increase % (particle size) [1, 12]: 125%; activity ([5]; 10 g/l in 9% of NaCl): 96%; viability ([5]; 10 g/l in 9% of NaCl): 102%"
"C[N+](C)(C)CCOP(=O)([O-])OCC(COC(=O)CCCCCCCCCCC(F)(F)C(F)(F)C(F)(F)C(F)(F)C(F)(F)C(F)(F)F)OC(=O)CCCCCCCCCCC(F)(F)C(F)(F)C(F)(F)C(F)(F)C(F)(F)C(F)(F)F (racemic) [Compound 10, 1,2-di[(11-F-hexyl)undecaoyl] 3-[2'-(N,N,N-trimethylamino)ethyl] phosphoryl rac-glycerol]",,,,,,,30000,99,95,
"O=P(OCCCCCCCCCCCC(F)(F)C(F)(F)C(F)(F)C(F)(F)C(F)(F)C(F)(F)F)(N1CCOCC1)N1CCOCC1 [Compound 3, [11-(F-hexyl)undecyl] dimorpholinohosphoramidate]",50,0.26,0.39,,,,,,,γs (surface tension) ([2]; 0.1 g/l in water): 24.4 mNm^-1; γi (interfacial tension between water and perfluorodecalin) ([3]; 0.1 g/l in water): 7.5 mNm^-1; Spreading Coef. ([3]; 0.1 g/l in water): -0.9 mNm^-1
"O=P(OCCC(F)(F)C(F)(F)C(F)(F)C(F)(F)C(F)(F)C(F)(F)F)(N1CCOCC1)N1CCOCC1 [Compound 1, [2-(F-hexyl)ethyl] dimorpholinophosphoramidate]",,,,22.5,2.0,-1.6,,,,
"C[N+](C)(C)CCOP(=O)([O-])OCC(COCCCCCCCCCCCC(F)(F)C(F)(F)C(F)(F)C(F)(F)F)OCCCCCCCCCCCC(F)(F)C(F)(F)C(F)(F)C(F)(F)F (racemic) [Compound 13, 1,2-di [(11-F-butyl)undecyl] 3-[2'-(N,N,N-trimethylamino)ethylphosphoryl] rac-glycerol]",,,,,,,60000,55,91,
"C[N+](C)(C)CCOP(=O)([O-])OCC(COC(=O)CCCCCCCCCCC(F)(F)C(F)(F)C(F)(F)C(F)(F)F)OC(=O)CCCCCCCCCCC(F)(F)C(F)(F)C(F)(F)C(F)(F)F (racemic) [Compound 11, 1,2-di [(11-F-butyl)undecaoyl] 3-[2'-(N,N,N-trimethylamino)ethylphosphoryl] rac-glycerol]",,,,,,,100000,60,83,"Relative Increase % (particle size) ([1]; Table III, 0.66% compound + 1.33% EYP (Ref.: 2% EYP), 50% w/v F-decalin, 1 month at 50° C.): 35%; Average Particle Size After Preparation ([1]; Table III, 0.66% compound + 1.33% EYP (Ref.: 2% EYP), 50% w/v F-decalin, sonication): 0.37 μm; Average Particle Size After 1 month ([1]; Table III, 0.66% compound + 1.33% EYP (Ref.: 2% EYP), 50% w/v F-decalin, sonication, stored at 50° C.): 0.50 μm; increase in average particle size ([1]; sonication): 10%"
"O=P(OCCCCCCCCCCCC(F)(F)C(F)(F)C(F)(F)C(F)(F)C(F)(F)C(F)(F)C(F)(F)C(F)(F)F)(N1CCOCC1)N1CCOCC1 [Compound 4, [11-(F-octyl)undecyl] dimorpholinohosphoramidate]",50,0.26,0.39,,,,,,,γs (surface tension) ([2]; 0.1 g/l in water): 22.5 mNm^-1; γi (interfacial tension between water and perfluorodecalin) ([3]; 0.1 g/l in water): 1.4 mNm^-1; Spreading Coef. ([3]; 0.1 g/l in water): -1.0 mNm^-1
"O=P(OCCC(F)(F)C(F)(F)C(F)(F)C(F)(F)C(F)(F)C(F)(F)C(F)(F)C(F)(F)F)(N1CCOCC1)N1CCOCC1 [Compound 2, [2-(F-octyl)ethyl] dimorpholinohosphoramidate]",,,,22.5,1.0,-0.6,,67,106,
"COCCOP(=O)(OCCOC)OCC(COC(=O)CCCCCCCCCCC(F)(F)C(F)(F)C(F)(F)C(F)(F)C(F)(F)C(F)(F)F)OC(=O)CCCCCCCCCCC(F)(F)C(F)(F)C(F)(F)C(F)(F)C(F)(F)C(F)(F)F (racemic) [Compound 14, [1',2'-di [(11-F-hexyl)undecanoyl]rac-glyceryl] [di (2'-methoxy-ethyl)] phosphate]",,,,,,,10000,,,
"C[N+](C)(C)CCOP(=O)([O-])OCC(COC(=O)CCCCC(F)(F)C(F)(F)C(F)(F)C(F)(F)C(F)(F)C(F)(F)F)OC(=O)CCCCC(F)(F)C(F)(F)C(F)(F)C(F)(F)C(F)(F)C(F)(F)F (racemic) [Compound 12, 1,2-di [(11-F-hexyl)pentanoyl] 3-[2' -(N,N,N-trimethylamino)ethylphosphoryl] rac-glycerol]",,,,,,,100000,,,"increase in average particle size ([1]; sonication): 10%; Average size of liposomes ([6]; 3% (w/v), from dried lipid film, HEPES buffer pH 7, probe sonicated, light scattering): 0,12 μm; average particle size of dispersion ([6]; same dispersion procedure applied to powder lipid): 0,12 μm"
"C[N+](C)(C)CCOP(=O)([O-])OCCCCCCCCCCCC(F)(F)C(F)(F)C(F)(F)C(F)(F)C(F)(F)C(F)(F)C(F)(F)C(F)(F)F [Compound 6, [11-(F-octyl)undecyl] [2'-N,N,N trimethylamino ethyl] phosphate]",110,0.17,0.36,30.0,9.4,-16.5,1000,,,"Relative Increase % (particle size) [1, 7]: 44%; Average Particle Size After 1 month at 50° C. [1, 8]: 0.36 μm; Average Particle Size After Preparation [1, 8]: 0.25 μm"
